In patent publication US11981658B2, “Substituted aminopyridine compounds as EGFR inhibitors” (YUHAN CORPORATION, priority 2021, dated 2024):
Read-outs that look alike come from different tables or passages of the source.

Tests used:
EGFR Del19/C797S = EGFR Del19/C797S (Homo sapiens, UniProt P00533, C797S/DEL746-750); assay: Biochemical EGFR kinase inhibition assay (Lance Ultra TR-FRET), double mutant del19/C797S
Procedure, shortened: (§1)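 Kinase activity is measured by TR-FRET phosphopeptide detection. Compounds span 0.003 μM to 10 μM; the 1 h reaction at room temperature is quenched with EDTA, then labelled antibody (2 nM) is incubated 60 min before reading.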

EGFR L858R/T790M/C797S = EGFR L858R/T790M/C797S (Homo sapiens, UniProt P00533, C797S/L858R/T790M); assay: Biochemical EGFR kinase inhibition assay (Lance Ultra TR-FRET), triple mutant L858R/T790M/C797S
Procedure, shortened: as §1

EGFR Del19/T790M/C797S = EGFR Del19/T790M/C797S (Homo sapiens, UniProt P00533, C797S/DEL746-750/T790M); assay: Biochemical EGFR kinase inhibition assay (Lance Ultra TR-FRET), triple mutant del19/T790M/C797S
EGFR Del19/T790M/C797S, sequence (P00533 with tags, fused parts or gaps DEL746-750/T790M/C797S): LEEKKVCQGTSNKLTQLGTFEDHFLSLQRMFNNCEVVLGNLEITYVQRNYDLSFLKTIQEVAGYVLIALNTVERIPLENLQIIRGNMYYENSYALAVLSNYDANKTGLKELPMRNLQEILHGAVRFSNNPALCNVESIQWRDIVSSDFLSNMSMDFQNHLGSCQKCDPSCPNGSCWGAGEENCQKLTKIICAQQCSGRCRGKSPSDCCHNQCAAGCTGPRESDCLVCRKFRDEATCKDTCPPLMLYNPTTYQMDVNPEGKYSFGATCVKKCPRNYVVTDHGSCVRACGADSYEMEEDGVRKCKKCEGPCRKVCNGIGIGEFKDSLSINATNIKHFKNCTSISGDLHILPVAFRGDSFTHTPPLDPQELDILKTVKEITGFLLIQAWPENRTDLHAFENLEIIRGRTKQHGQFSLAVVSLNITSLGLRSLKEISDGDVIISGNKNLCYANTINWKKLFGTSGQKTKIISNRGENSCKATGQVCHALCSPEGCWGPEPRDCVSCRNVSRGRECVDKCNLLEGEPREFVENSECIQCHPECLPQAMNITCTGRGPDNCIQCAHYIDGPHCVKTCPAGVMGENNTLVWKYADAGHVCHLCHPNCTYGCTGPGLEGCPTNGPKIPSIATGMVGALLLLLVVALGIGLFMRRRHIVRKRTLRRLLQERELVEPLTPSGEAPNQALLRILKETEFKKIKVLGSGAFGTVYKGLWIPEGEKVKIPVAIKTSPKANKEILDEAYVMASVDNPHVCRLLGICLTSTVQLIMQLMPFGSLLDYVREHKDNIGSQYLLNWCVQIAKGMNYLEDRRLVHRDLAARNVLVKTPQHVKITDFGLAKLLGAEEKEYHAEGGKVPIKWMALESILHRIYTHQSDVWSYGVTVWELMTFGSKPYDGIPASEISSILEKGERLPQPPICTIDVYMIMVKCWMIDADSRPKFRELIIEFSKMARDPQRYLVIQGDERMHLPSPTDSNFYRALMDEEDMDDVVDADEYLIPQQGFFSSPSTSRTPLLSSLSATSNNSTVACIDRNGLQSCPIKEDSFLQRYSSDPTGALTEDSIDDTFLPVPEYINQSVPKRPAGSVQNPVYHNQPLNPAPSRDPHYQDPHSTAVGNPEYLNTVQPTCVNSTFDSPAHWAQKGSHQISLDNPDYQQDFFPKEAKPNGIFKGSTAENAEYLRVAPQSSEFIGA
Procedure, shortened: as §1

EGFR wildtype (WT) = EGFR wildtype (WT) (Homo sapiens, UniProt P00533); assay: Biochemical EGFR kinase inhibition assay (Lance Ultra TR-FRET), wildtype
EGFR wildtype (WT), sequence (P00533 25-1210): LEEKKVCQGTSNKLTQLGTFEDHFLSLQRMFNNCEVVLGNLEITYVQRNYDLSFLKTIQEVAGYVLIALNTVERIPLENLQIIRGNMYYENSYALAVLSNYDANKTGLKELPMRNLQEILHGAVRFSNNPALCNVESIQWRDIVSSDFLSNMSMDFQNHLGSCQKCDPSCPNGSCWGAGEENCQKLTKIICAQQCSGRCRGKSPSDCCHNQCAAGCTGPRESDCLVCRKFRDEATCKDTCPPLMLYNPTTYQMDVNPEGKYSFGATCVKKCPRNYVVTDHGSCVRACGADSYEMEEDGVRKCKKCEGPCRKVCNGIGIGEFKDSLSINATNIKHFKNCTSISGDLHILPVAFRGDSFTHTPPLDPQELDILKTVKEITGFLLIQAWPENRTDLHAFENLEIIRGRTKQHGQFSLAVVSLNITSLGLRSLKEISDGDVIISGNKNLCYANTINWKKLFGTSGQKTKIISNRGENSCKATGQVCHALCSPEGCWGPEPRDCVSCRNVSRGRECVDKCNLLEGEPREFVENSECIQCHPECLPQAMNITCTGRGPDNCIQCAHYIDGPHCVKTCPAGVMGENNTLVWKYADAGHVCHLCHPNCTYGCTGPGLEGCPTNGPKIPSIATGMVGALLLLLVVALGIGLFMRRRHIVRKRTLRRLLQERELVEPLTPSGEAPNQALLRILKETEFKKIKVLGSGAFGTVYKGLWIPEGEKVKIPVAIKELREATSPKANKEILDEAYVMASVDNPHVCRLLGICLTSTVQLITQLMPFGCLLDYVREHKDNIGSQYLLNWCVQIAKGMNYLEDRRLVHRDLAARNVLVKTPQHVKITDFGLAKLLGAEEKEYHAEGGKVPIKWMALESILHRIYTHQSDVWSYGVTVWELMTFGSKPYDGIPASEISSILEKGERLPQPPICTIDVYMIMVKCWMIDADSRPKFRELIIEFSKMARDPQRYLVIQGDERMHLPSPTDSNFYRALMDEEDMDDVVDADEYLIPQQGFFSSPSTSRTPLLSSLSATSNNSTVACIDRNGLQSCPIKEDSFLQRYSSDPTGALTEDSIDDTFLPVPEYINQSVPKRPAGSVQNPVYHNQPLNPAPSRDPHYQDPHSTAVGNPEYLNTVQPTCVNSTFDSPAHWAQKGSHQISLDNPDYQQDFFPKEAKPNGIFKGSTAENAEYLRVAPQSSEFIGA
Procedure, shortened: as §1

EGFR L858R/C797S = EGFR L858R/C797S (Homo sapiens, UniProt P00533, C797S/L858R); assay: Biochemical EGFR kinase inhibition assay (Lance Ultra TR-FRET), double mutant L858R/C797S
EGFR L858R/C797S, sequence (P00533 25-1210 C797S/L858R): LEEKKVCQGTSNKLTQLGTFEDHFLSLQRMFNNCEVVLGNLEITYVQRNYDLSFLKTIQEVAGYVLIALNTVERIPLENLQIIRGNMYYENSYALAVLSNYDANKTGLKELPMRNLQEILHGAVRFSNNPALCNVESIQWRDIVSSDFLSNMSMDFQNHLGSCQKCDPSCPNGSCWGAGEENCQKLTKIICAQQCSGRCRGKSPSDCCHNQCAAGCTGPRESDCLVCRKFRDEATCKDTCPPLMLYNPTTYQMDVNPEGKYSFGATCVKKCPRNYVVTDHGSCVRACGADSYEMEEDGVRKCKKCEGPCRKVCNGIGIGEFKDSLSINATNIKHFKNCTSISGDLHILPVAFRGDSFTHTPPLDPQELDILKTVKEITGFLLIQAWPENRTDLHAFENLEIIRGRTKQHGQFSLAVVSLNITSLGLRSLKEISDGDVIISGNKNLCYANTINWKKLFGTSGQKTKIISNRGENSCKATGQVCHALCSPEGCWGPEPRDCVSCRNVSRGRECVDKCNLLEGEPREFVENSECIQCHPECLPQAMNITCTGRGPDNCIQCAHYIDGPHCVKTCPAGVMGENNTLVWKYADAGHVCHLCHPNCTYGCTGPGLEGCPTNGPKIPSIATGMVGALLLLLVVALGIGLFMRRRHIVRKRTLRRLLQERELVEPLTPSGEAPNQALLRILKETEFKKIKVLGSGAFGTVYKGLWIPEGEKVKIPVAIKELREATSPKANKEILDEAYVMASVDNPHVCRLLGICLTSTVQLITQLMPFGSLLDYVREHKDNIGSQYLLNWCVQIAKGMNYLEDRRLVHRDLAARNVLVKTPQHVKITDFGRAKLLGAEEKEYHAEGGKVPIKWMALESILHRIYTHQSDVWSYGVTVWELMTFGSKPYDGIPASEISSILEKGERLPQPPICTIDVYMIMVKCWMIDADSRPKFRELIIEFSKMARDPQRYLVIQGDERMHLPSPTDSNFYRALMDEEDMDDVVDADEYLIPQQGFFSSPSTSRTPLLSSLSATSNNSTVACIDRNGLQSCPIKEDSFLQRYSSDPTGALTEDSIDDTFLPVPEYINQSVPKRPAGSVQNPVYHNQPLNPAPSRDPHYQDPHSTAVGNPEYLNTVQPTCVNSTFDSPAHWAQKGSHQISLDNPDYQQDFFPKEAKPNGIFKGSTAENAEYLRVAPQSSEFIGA
Procedure, shortened: as §1

[1] = IC50 Del19/C797S (nM), 100 μM ATP
[2] = Km ATP, read-out: IC50 Del19/C797S (nM), Km ATP
[3] = IC50 L858R/T790M/C797S (nM), 100 μM ATP
[4] = Km ATP, read-out: IC50 L858R/T790M/C797S (nM), Km ATP
[5] = IC50 Del19/T790M/C797S (nM), 100 μM ATP
[6] = Km ATP, read-out: IC50 Del19/T790M/C797S (nM), Km ATP
[7] = Km ATP, read-out: IC50 WT (nM), Km ATP
[8] = IC50 L858R/C797S (nM), 100 μM ATP
[9] = Km ATP, read-out: IC50 L858R/C797S (nM), Km ATP
[10] = Km ATP, read-out: IC50 Del19/C797S (nM) Km ATP
[11] = Km ATP, read-out: IC50 L858R/T790M/C797S (nM) Km ATP
[12] = Km ATP, read-out: IC50 Del19/T790M/C797S (nM) Km ATP
[13] = Km ATP, read-out: IC50 WT (nM) Km ATP
[14] = Km ATP, read-out: IC50 L858R/C797S (nM) Km ATP
[15] = ATP at Km, read-out: IC50 Del19/C797S (nM), Km ATP
[16] = ATP at Km, read-out: IC50 L858R/T790M/C797S (nM), Km ATP
[17] = ATP at Km, read-out: IC50 Del19/T790M/C797S (nM), Km ATP
[18] = ATP at Km, read-out: IC50 WT (nM), Km ATP
[19] = ATP at Km, read-out: IC50 L858R/C797S (nM), Km ATP

EGFR Del19/C797S, sequence (P00533 with tags, fused parts or gaps DEL746-750/C797S): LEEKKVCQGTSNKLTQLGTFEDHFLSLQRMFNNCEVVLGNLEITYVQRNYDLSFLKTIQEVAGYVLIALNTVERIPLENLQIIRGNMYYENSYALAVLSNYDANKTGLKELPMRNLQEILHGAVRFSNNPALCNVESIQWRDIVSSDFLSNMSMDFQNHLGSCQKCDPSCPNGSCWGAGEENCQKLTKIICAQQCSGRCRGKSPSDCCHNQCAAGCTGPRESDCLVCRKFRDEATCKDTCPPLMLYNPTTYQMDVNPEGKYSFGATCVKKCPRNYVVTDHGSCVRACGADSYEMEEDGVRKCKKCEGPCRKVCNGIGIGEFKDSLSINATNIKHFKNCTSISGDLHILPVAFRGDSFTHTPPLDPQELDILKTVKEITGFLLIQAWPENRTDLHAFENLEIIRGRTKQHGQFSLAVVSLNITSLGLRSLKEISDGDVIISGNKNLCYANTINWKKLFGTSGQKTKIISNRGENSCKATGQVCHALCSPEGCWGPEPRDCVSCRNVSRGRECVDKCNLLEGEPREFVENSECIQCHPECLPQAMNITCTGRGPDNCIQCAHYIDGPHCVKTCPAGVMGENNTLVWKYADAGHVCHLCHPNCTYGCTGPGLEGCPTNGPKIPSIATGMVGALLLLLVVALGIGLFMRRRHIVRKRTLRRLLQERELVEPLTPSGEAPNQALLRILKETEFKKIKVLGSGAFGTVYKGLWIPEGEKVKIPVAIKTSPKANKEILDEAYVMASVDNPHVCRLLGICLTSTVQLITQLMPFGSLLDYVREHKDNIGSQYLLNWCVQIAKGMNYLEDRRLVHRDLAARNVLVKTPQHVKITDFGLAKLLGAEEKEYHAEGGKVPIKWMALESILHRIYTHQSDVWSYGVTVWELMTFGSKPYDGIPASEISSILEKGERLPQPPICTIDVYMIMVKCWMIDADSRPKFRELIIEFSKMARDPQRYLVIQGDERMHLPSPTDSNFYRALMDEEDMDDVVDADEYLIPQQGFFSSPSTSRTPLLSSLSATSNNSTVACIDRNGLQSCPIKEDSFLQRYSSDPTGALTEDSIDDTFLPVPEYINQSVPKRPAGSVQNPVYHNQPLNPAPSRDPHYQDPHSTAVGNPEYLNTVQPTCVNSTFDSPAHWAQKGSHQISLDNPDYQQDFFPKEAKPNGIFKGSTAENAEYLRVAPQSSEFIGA

SMILES | IC50 (EGFR Del19/C797S; [1]) | IC50 (EGFR L858R/T790M/C797S; [3]) | IC50 (EGFR Del19/T790M/C797S; [5]) | IC50 (EGFR wildtype (WT); IC50 WT (nM), 100 μM ATP) | IC50 (EGFR L858R/C797S; [8]) | IC50 (EGFR Del19/C797S; [15]) | IC50 (EGFR L858R/T790M/C797S; [16]) | IC50 (EGFR Del19/T790M/C797S; [17]) | IC50 (EGFR wildtype (WT); [18]) | IC50 (EGFR L858R/C797S; [19]) | other results
CC1(CO)CCN(c2cc(Nc3ccnc(-c4cnn(S(=O)(=O)C5CC5)c4)n3)ncc2C#Cc2cnn(CC(F)(F)F)c2)CC1 [Example 348, (1-(2-((2-(1-(Cyclopropylsulfonyl)-1H-pyrazol-4-yl)pyrimidin-4-yl)amino)-5-((1-(2,2,2-trifluoroethyl)-1H-pyrazol-4-yl)ethynyl)pyridin-4-yl)-4-methylpiperidin-4-yl)methanol] | 4.9 nM | 0.8 nM | 2.1 nM | 651 nM | 14.3 nM |  |  |  |  |  | IC50 (EGFR Del19/C797S; [2]): 4.7 nM; IC50 (EGFR L858R/T790M/C797S; [4]): 1.4 nM; IC50 (EGFR Del19/T790M/C797S; [6]): 4.2 nM; IC50 (EGFR wildtype (WT); [7]): 14.1 nM; IC50 (EGFR L858R/C797S; [9]): 1.1 nM
O=S(=O)(C1CC1)n1cc(-c2nccc(Nc3cc(N[C@H]4CC[C@@H](O)CC4)c(C#Cc4ccc(NCCN5CCOCC5)cc4)cn3)n2)cn1 [Example 172, (1s,4s)-4-((2-((2-(1-(Cyclopropylsulfonyl)-1H-pyrazol-4-yl)pyrimidin-4-yl)amino)-5-((4-((2-morpholinoethyl)amino)phenyl)ethynyl)pyridin-4-yl)amino)cyclohexan-1-ol] |  |  |  |  |  | 14.1 nM | 4.8 nM | 4.6 nM | 68.4 nM | 11.5 nM | IC50 (EGFR Del19/C797S; read-out: IC50 Del19/C797S (nM), 100 μM ATP): 32.4 nM; IC50 (EGFR L858R/T790M/C797S; read-out: IC50 L858R/T790M/C797S (nM), 100 μM ATP): 14.5 nM; IC50 (EGFR Del19/T790M/C797S; read-out: IC50 Del19/T790M/C797S (nM), 100 μM ATP): 6.9 nM; IC50 (EGFR wildtype (WT); read-out: IC50 WT (nM), 100 μM ATP): > 10000 nM; IC50 (EGFR L858R/C797S; read-out: IC50 L858R/C797S (nM), 100 μM ATP): 124 nM
Cn1cc(C#Cc2cnc(Nc3ccnc(-c4cnn(S(=O)(=O)C5CC5)c4)n3)cc2N2CCCC(O)CC2)cn1 (stereo not shown) [Example 77, 1-(2-((2-(1-(Cyclopropylsulfonyl)-1H-pyrazol-4-yl)pyrimidin-4-yl)amino)-5-((1-methyl-1H-pyrazol-4-yl)ethynyl)pyridin-4-yl)azepan-4-ol] | 6.3 nM | 3.6 nM | 0.6 nM | > 10000 nM | 357 nM |  |  |  |  |  | IC50 (EGFR Del19/C797S; [10]): 5 nM; IC50 (EGFR L858R/T790M/C797S; [11]): 0.5 nM; IC50 (EGFR Del19/T790M/C797S; [12]): 0.9 nM; IC50 (EGFR wildtype (WT); [13]): 97 nM; IC50 (EGFR L858R/C797S; [14]): 14.1 nM
Cn1cc(C#Cc2cnc(Nc3ccnc(-c4cnn(S(=O)(=O)C5CC5)c4)n3)cc2N2CCC(O)CC2)cn1 [Example 27, 1-(2-((2-(1-(Cyclopropylsulfonyl)-1H-pyrazol-4-yl)pyrimidin-4-yl)amino)-5-((1-methyl-1H-pyrazol-4-yl)ethynyl)pyridin-4-yl)piperidin-4-ol] | 4.1 nM | 1.5 nM | 0.6 nM | > 10000 nM | 27.8 nM |  |  |  |  |  | IC50 (EGFR Del19/C797S; [10]): 4 nM; IC50 (EGFR Del19/T790M/C797S; [12]): 0.6 nM; IC50 (EGFR wildtype (WT); [13]): 22 nM; IC50 (EGFR L858R/C797S; [14]): 3.6 nM
CN1CCC(C#Cc2cnc(Nc3ccnc(-c4cnn(S(=O)(=O)C5CC5)c4)n3)cc2N2CCC3(CCCO3)CC2)C1 (stereo not shown) [Example 372, 2-(1-(Cyclopropylsulfonyl)-1H-pyrazol-4-yl)-N-(5-((1-methylpyrrolidin-3-yl)ethynyl)-4-(1-oxa-8-azaspiro[4.5]decan-8-yl)pyridin-2-yl)pyrimidin-4-amine] | 1.6 nM | 0.3 nM | 0.3 nM | 5110 nM | 22.9 nM |  |  |  |  |  | IC50 (EGFR Del19/C797S; [2]): 0.8 nM; IC50 (EGFR L858R/T790M/C797S; [4]): 0.1 nM; IC50 (EGFR Del19/T790M/C797S; [6]): 0.2 nM; IC50 (EGFR wildtype (WT); [7]): 5.5 nM; IC50 (EGFR L858R/C797S; [9]): 1 nM
CC1(CO)CCN(c2cc(Nc3ccnc(-c4cnn(S(=O)(=O)C5CC5)c4)n3)ncc2C#Cc2cnn(CC3CCCOC3)c2)CC1 (stereo not shown) [Example 241, (1-(2-((2-(1-(Cyclopropylsulfonyl)-1H-pyrazol-4-yl)pyrimidin-4-yl)amino)-5-((1-((tetrahydro-2H-pyran-3-yl)methyl)-1H-pyrazol-4-yl)ethynyl)pyridin-4-yl)-4-methylpiperidin-4-yl)methanol] | 1.7 nM | 3.9 nM | 2.5 nM | 4180 nM | 17.5 nM | 1.2 nM | 0.8 nM | 2.1 nM | 9.1 nM | 2.3 nM | 
O=C(c1ccc(C#Cc2cnc(Nc3ccnc(-c4cnn(S(=O)(=O)C5CC5)c4)n3)cc2N2CCC[C@H](O)C2)cc1)N1CCC(O)CC1 [Example 445, (S)-(4-((6-((2-(1-(Cyclopropylsulfonyl)-1H-pyrazol-4-yl)pyrimidin-4-yl)amino)-4-(3-hydroxypiperidin-1-yl)pyridin-3-yl)ethynyl)phenyl)(4-hydroxypiperidin-1-yl)methanone] | 2 nM | 0.4 nM | 0.9 nM | > 10000 nM | 104 nM |  |  |  |  |  | IC50 (EGFR L858R/T790M/C797S; [4]): 0.1 nM; IC50 (EGFR Del19/T790M/C797S; [6]): 0.5 nM

Further compounds by falling IC50 (EGFR Del19/C797S; [1]), results first:

IC50 (EGFR Del19/C797S; [1]) | IC50 (EGFR L858R/T790M/C797S; [3]) | IC50 (EGFR Del19/T790M/C797S; [5]) | IC50 (EGFR wildtype (WT); IC50 WT (nM), 100 μM ATP) | IC50 (EGFR L858R/C797S; [8]) | IC50 (EGFR Del19/C797S; [15]) | IC50 (EGFR L858R/T790M/C797S; [16]) | IC50 (EGFR Del19/T790M/C797S; [17]) | IC50 (EGFR wildtype (WT); [18]) | IC50 (EGFR L858R/C797S; [19]) | SMILES | other results
120 nM | 4.4 nM | 2.6 nM | > 10000 nM | 112 nM |  |  |  |  |  | CC(C)Nc1cc(Nc2ccnc(-c3cnn(S(=O)(=O)C4CC4)c3)n2)ncc1C#CCCCCNC(=O)N1CCOCC1 [Example 209, N-(6-(6-((2-(1-(Cyclopropylsulfonyl)-1H-pyrazol-4-yl)pyrimidin-4-yl)amino)-4-(isopropylamino)pyridin-3-yl)hex-5-yn-1-yl)morpholine-4-carboxamide] | 
10.7 nM | 23.1 nM | 19.4 nM | > 10000 nM | 143 nM |  |  |  |  |  | CC1(CO)CCN(c2cc(Nc3ccnc(-c4cnn(S(=O)(=O)C5CC5)c4)n3)ncc2C#Cc2ccccc2F)CC1 [Example 257, (1-(2-((2-(1-(Cyclopropylsulfonyl)-1H-pyrazol-4-yl)pyrimidin-4-yl)amino)-5-((2-fluorophenyl)ethynyl)pyridin-4-yl)-4-methylpiperidin-4-yl)methanol] | 
4.6 nM | 6.7 nM | 5.1 nM | > 10000 nM | 71.5 nM | 3.3 nM | 1 nM | 1.8 nM | 19.7 nM | 8.9 nM | O=S(=O)(C1CC1)n1cc(-c2nccc(Nc3cc(N[C@H]4CC[C@@H](O)CC4)c(C#Cc4ccc(CN5CCOCC5)s4)cn3)n2)cn1 [Example 190, (1s,4s)-4-((2-((2-(1-(Cyclopropylsulfonyl)-1H-pyrazol-4-yl)pyrimidin-4-yl)amino)-5-((5-(morpholinomethyl)thiophen-2-yl)ethynyl)pyridin-4-yl)amino)cyclohexan-1-ol] | 
3.6 nM | 0.8 nM | 0.4 nM | > 10000 nM | 104 nM | 3 nM | 0.3 nM | 0.5 nM | 40.1 nM | 14.2 nM | O=S(=O)(C1CC1)n1cc(-c2nccc(Nc3cc(N[C@H]4CC[C@@H](O)CC4)c(C#CC4(O)CCCC4)cn3)n2)cn1 [Example 176, (1s,4s)-4-((2-((2-(1-(Cyclopropylsulfonyl)-1H-pyrazol-4-yl)pyrimidin-4-yl)amino)-5-((1-hydroxycyclopentyl)ethynyl)pyridin-4-yl)amino)cyclohexan-1-ol] | 
0.9 nM | 2.9 nM | 1.8 nM | 1260 nM | 7.2 nM |  |  |  |  |  | CC1(CO)CCN(c2cc(Nc3ccnc(-c4cnn(S(=O)(=O)C5CC5)c4)n3)ncc2C#Cc2cnn(CC(F)F)c2)CC1 [Example 49, (1-(2-((2-(1-(Cyclopropylsulfonyl)-1H-pyrazol-4-yl)pyrimidin-4-yl)amino)-5-((1-(2,2-difluoroethyl)-1H-pyrazol-4-yl)ethynyl)pyridin-4-yl)-4-methylpiperidin-4-yl)methanol] | IC50 (EGFR Del19/C797S; [10]): 2.1 nM; IC50 (EGFR L858R/T790M/C797S; [11]): 1.1 nM; IC50 (EGFR Del19/T790M/C797S; [12]): 1.8 nM; IC50 (EGFR wildtype (WT); [13]): 14.3 nM; IC50 (EGFR L858R/C797S; [14]): 2.8 nM
